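96-well plates; 48 h exposure; 5 concentrations. Endpoints by linear interpolation between flanking doses. Not reached: highest tested concentration assigned. GI50: concentration for 50% inhibition of growth.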 Calls of active or inactive are those of the source. No stated cut-off is given here; in the data, active = GI50 up to about 1.1 µM and inactive = higher.
Assays:
Experiment in all cases: inhibition of tumour cell growth, NCI panel, 48 h
786-0 = tested on: 786-0
A498 = tested on: A498
DU-145 = tested on: DU-145
HCT-116 = tested on: HCT-116
HL-60 = tested on: HL-60
IGROV-1 = tested on: IGROV-1
K562 = tested on: K562
KM12 = tested on: KM12
M14 = tested on: M14
MCF7 = tested on: MCF7
MOLT-4 = tested on: MOLT-4
OVCAR-3 = tested on: OVCAR-3
OVCAR-4 = tested on: OVCAR-4
OVCAR-8 = tested on: OVCAR-8
RPMI-8226 = tested on: RPMI-8226
SK-MEL-28 = tested on: SK-MEL-28
SK-MEL-5 = tested on: SK-MEL-5
SN12C = tested on: SN12C
UO-31 = tested on: UO-31
M19-MEL = tested on: M19-MEL

Measured: GI50

CC(C)(C)c1cc(C(C)(C)C)c(P=C(Cl)Cl)c(C(C)(C)C)c1 (stereo not given)
active: K562 0.0478 µM
inactive: 786-0 > 100 µM | A498 > 100 µM | DU-145 > 100 µM | HCT-116 > 100 µM | HL-60 > 100 µM | IGROV-1 > 100 µM | KM12 > 100 µM | M14 > 100 µM | MCF7 > 100 µM | MOLT-4 > 100 µM | OVCAR-3 > 100 µM | OVCAR-4 > 100 µM | OVCAR-8 > 100 µM | RPMI-8226 > 100 µM | SK-MEL-28 > 100 µM | SK-MEL-5 > 100 µM | SN12C > 100 µM | UO-31 > 100 µM

C=C1C(=O)O[C@@H]2CC(CO)=C([C@@H](C)CCCO)[C@@H](OC(=O)/C(C)=C\C)[C@H]12
inactive: 786-0 14.8 µM | A498 27.8 µM | DU-145 8.71 µM | HCT-116 8.07 µM | HL-60 1.83 µM | IGROV-1 14.5 µM | K562 5.22 µM | KM12 17.3 µM | M14 23.5 µM | MCF7 10.2 µM | MOLT-4 10.8 µM | OVCAR-3 7.64 µM | OVCAR-4 22.2 µM | OVCAR-8 20.6 µM | RPMI-8226 5.05 µM | SK-MEL-28 12 µM | SK-MEL-5 13.9 µM | SN12C 16.2 µM | UO-31 16.8 µM

CCN(CC)C(=S)SC(=S)N(CC)CC
inactive: 786-0 23.7 µM | A498 47.3 µM | DU-145 55.8 µM | HCT-116 21 µM | HL-60 29.5 µM | IGROV-1 30.5 µM | K562 28 µM | KM12 28.1 µM | M14 44.5 µM | MCF7 34.8 µM | MOLT-4 26.4 µM | OVCAR-3 37 µM | OVCAR-4 19.9 µM | OVCAR-8 31.6 µM | RPMI-8226 15.6 µM | SK-MEL-28 36.6 µM | SK-MEL-5 5.07 µM | SN12C > 54.3 µM | UO-31 30.3 µM

C=C[C@@]1(O)CCCC2=C(C(=O)OCC)CC[C@]21C
inactive: 786-0 > 100 µM | HL-60 36.1 µM | IGROV-1 > 100 µM | K562 30.8 µM | KM12 > 100 µM | M14 78.7 µM | M19-MEL > 100 µM | MOLT-4 26.1 µM | OVCAR-3 > 100 µM | OVCAR-8 > 100 µM | RPMI-8226 > 100 µM | SK-MEL-28 > 100 µM | SK-MEL-5 38.1 µM | SN12C > 100 µM | UO-31 > 100 µM

C=C1C(=O)O[C@H]2C3C(=C(C)CC[C@@H]12)C(=O)[C@@H]1OC31C (stereo not given in full)
inactive: 786-0 1.86 µM | A498 11.4 µM | DU-145 12.5 µM | IGROV-1 5.45 µM | KM12 5.73 µM | M14 1.68 µM | MCF7 1.8 µM | MOLT-4 1.36 µM | OVCAR-3 2 µM | OVCAR-4 1.58 µM | OVCAR-8 2.18 µM | SK-MEL-28 2.34 µM | SK-MEL-5 1.59 µM | SN12C 1.63 µM | UO-31 4.89 µM
active: HCT-116 1.11 µM | HL-60 0.23 µM | K562 0.698 µM | RPMI-8226 0.746 µM

O=C1Cc2c([nH]c3c(Cl)cccc23)-c2ccccc2N1
inactive: 786-0 > 100 µM | A498 > 100 µM | DU-145 > 100 µM | HCT-116 > 100 µM | HL-60 > 100 µM | IGROV-1 > 100 µM | K562 > 100 µM | KM12 > 100 µM | M14 > 100 µM | MCF7 > 100 µM | MOLT-4 > 100 µM | OVCAR-3 > 100 µM | OVCAR-4 > 100 µM | OVCAR-8 > 100 µM | RPMI-8226 > 100 µM | SK-MEL-28 > 100 µM | SK-MEL-5 > 100 µM | SN12C > 100 µM | UO-31 > 100 µM

From ChEMBL document CHEMBL1201862, “PubChem BioAssay data set” (2004)
